Where “and” joins values, the source holds several entries; their conditions need not be identical. Equal entries are not always repeated. Toxic doses and inconclusive results are not listed. Rule as the data show it: active = T/C of 150% or more; inactive = T/C below 125%. Square brackets hold non-standard residues; d marks the D form. Peptide text beside a SMILES is read from it. Ac5c = NC1(C(=O)O)CCCC1
System: L1210 leukemia ip in BDF1 mice, survival T/C
Experiment: NCI In Vivo Anticancer Drug Screen. Data for tumor model L1210 Leukemia (intraperitoneal) in B6D2F1 (BDF1) mice
Details: endpoint: mean survival time, higher = longer survival
How it was run: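 Tumor was transplanted into mice, which were then dosed with test compound or vehicle alone. Survival was recorded for each group, and the treated figure was expressed relative to the control figure.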

[1] = dose: 100.0 mg/kg/injection, schedule: Q04DX003 (ip), vehicle: saline with Tween-80
[2] = dose: 200.0 mg/kg/injection, schedule: Q04DX003 (ip), vehicle: saline with Tween-80
[3] = dose: 400.0 mg/kg/injection, schedule: Q04DX003 (ip), vehicle: saline with Tween-80
[4] = dose: 100.0 mg/kg/injection, schedule: Q04DX003 (ip), vehicle: saline
[5] = dose: 50.0 mg/kg/injection, schedule: Q01DX009 (ip), vehicle: saline with Tween-80
[6] = dose: 200.0 mg/kg/injection, schedule: Q01DX009 (ip), vehicle: saline with Tween-80
[7] = dose: 400.0 mg/kg/injection, schedule: Q01DX009 (ip), vehicle: saline with Tween-80
[8] = dose: 100.0 mg/kg/injection, schedule: Q01DX009 (ip), vehicle: saline
[9] = dose: 200.0 mg/kg/injection, schedule: Q01DX009 (ip), vehicle: saline
[10] = dose: 400.0 mg/kg/injection, schedule: Q01DX009 (ip), vehicle: saline
[11] = dose: 100.0 mg/kg/injection, schedule: Q01DX009 (ip), vehicle: saline with Tween-80
[12] = dose: 200.0 mg/kg/injection, schedule: Q04DX003 (ip), vehicle: saline
[13] = dose: 400.0 mg/kg/injection, schedule: Q04DX003 (ip), vehicle: saline
[14] = dose: 200.0 mg/kg/injection, schedule: Q01DX001 (ip), vehicle: carboxymethylcellulose (CMC)
[15] = dose: 400.0 mg/kg/injection, schedule: Q01DX001 (ip), vehicle: carboxymethylcellulose (CMC)
[16] = dose: 100.0 mg/kg/injection, schedule: Q01DX001 (ip), vehicle: carboxymethylcellulose (CMC)

Measured: T/C

CCSC(=O)Nc1cccc(O)c1
inactive: dose: 100.0 mg/kg/injection, schedule: Q01DX001 (ip), vehicle: saline + alcohol 94 % of control | dose: 200.0 mg/kg/injection, schedule: Q01DX001 (ip), vehicle: saline + alcohol 94 % of control | dose: 400.0 mg/kg/injection, schedule: Q01DX001 (ip), vehicle: saline + alcohol 93 % of control

COC1OC(CBr)C(OC(C)=O)C(OC(C)=O)C1OC(C)=O (stereo not drawn)
inactive: [1] 93 % of control | [2] 98 % of control | [3] 98 % of control

CCN(CC)CCCNc1ccnc2cc(Cl)ccc12
inactive: dose: 100.0 mg/kg/injection, schedule: Q01DX001 (ip), vehicle: saline 94 % of control

Nc1ncnc2[nH]c(=O)[nH]c12
inactive: dose: 25.0 mg/kg/injection, schedule: Q04DX003 (ip), vehicle: saline 105 % of control | dose: 50.0 mg/kg/injection, schedule: Q04DX003 (ip), vehicle: saline 102 % of control | [4] 98 % of control

Cc1cccn2ncnc12
inactive: dose: 50.0 mg/kg/injection, schedule: Q01DX001 (ip), vehicle: alcohol 106 % of control | dose: 100.0 mg/kg/injection, schedule: Q01DX001 (ip), vehicle: alcohol 107 % of control | dose: 200.0 mg/kg/injection, schedule: Q01DX001 (ip), vehicle: alcohol 102 % of control

CCOC(=O)CC(CC(=O)OCC)C(=O)OCC
inactive: dose: 100.0 mg/kg/injection, schedule: Q04DX002 (ip), vehicle: saline 104 % of control | dose: 200.0 mg/kg/injection, schedule: Q04DX002 (ip), vehicle: saline 96 % of control | dose: 400.0 mg/kg/injection, schedule: Q04DX002 (ip), vehicle: saline 107 % of control

CCOC(=O)CCCN(c1sc(C)c(-c2ccccc2)c1C(=O)OCC)S(=O)(=O)c1ccc(C)cc1
inactive: dose: 25.0 mg/kg/injection, schedule: Q01DX009 (ip), vehicle: saline with Tween-80 93 % of control | [5] 93 % of control | dose: 50.0 mg/kg/injection, schedule: Q04DX003 (ip), vehicle: saline with Tween-80 98 % of control | [1] 104 % of control | [6] 90 % of control | [2] 97 % of control | [7] 90 % of control | [3] 87 % of control

CCOC(=O)N1C(C)C1C(C)C (stereo not drawn)
inactive: dose: 62.0 mg/kg/injection, schedule: Q04DX003 (ip), vehicle: carboxymethylcellulose (CMC) 97 % of control | dose: 125.0 mg/kg/injection, schedule: Q04DX003 (ip), vehicle: carboxymethylcellulose (CMC) 97 % of control | dose: 250.0 mg/kg/injection, schedule: Q04DX003 (ip), vehicle: carboxymethylcellulose (CMC) 94 % of control

c1ccc(-c2cscc2-c2ccccc2)cc1
inactive: dose: 25.0 mg/kg/injection, schedule: Q01DX009 (ip), vehicle: saline 105 % of control | dose: 50.0 mg/kg/injection, schedule: Q01DX009 (ip), vehicle: saline 96 % of control | [8] 100 % of control | [9] 97 % of control | [10] 98 % of control

O=C(NC(=S)Nc1cccc(C(F)(F)F)c1)c1cc([N+](=O)[O-])cc([N+](=O)[O-])c1
inactive: dose: 100.0 mg/kg/injection, schedule: Q01DX001 (ip), vehicle: saline with Tween-80 93 % of control | [11] 89 % of control | dose: 100.0 mg/kg/injection, schedule: Q04DX002 (ip), vehicle: saline with Tween-80 101 % of control | dose: 200.0 mg/kg/injection, schedule: Q01DX001 (ip), vehicle: saline with Tween-80 98 % of control | [6] 87 % of control and 89 % of control | dose: 200.0 mg/kg/injection, schedule: Q04DX002 (ip), vehicle: saline with Tween-80 94 % of control | dose: 400.0 mg/kg/injection, schedule: Q04DX002 (ip), vehicle: saline with Tween-80 97 % of control

O=C(O)CNCc1ccc(F)cc1
inactive: [8] 107 % of control | [4] 109 % of control | [9] 108 % of control | [12] 105 % of control | [10] 107 % of control | [13] 102 % of control

NC1(C(=O)NCC(=O)O)CCCC1 (H-[Ac5c]-Gly-OH)
inactive: [4] 104 % of control | [12] 100 % of control

Cc1c2ccc(=O)cc-2oc2cc(O)ccc12
inactive: dose: 100.0 mg/kg/injection, schedule: Q04DX003 (ip), vehicle: Klucel (hydroxypropylcellulose) (HPC) 92 % of control | dose: 200.0 mg/kg/injection, schedule: Q04DX003 (ip), vehicle: Klucel (hydroxypropylcellulose) (HPC) 94 % of control | dose: 400.0 mg/kg/injection, schedule: Q04DX003 (ip), vehicle: Klucel (hydroxypropylcellulose) (HPC) 87 % of control

O=C(NCc1ccccc1)c1ccc(Cl)cc1
inactive: [4] 97 % of control | [12] 97 % of control | [13] 95 % of control

C=C1CC2(c3ccccc3)C(=O)C1(c1ccccc1)C(c1ccccc1)=C2c1ccccc1 (stereo not drawn)
inactive: dose: 50.0 mg/kg/injection, schedule: Q01DX001 (ip), vehicle: carboxymethylcellulose (CMC) 96 % of control | [14] 90 % of control | [15] 89 % of control

Cc1cc(C(C)(C)c2cc(C)c(O)c(C)c2)cc(C)c1O
inactive: [11] 95 % of control | [1] 105 % of control | [6] 93 % of control | [2] 102 % of control | [7] 97 % of control | [3] 96 % of control

CS(=O)(=O)OCCCc1nc2ccccc2n1S(C)(=O)=O
inactive: [16] 110 % of control | [14] 110 % of control | [15] 104 % of control

CCOC(=O)N1C2C=CC(C2)N1C(=O)OCC
inactive: dose: 100.0 mg/kg/injection, schedule: Q04DX002 (sc), vehicle: olive oil, sesame oil, peanut oil 94 % of control | dose: 200.0 mg/kg/injection, schedule: Q04DX002 (sc), vehicle: olive oil, sesame oil, peanut oil 102 % of control | dose: 400.0 mg/kg/injection, schedule: Q04DX002 (sc), vehicle: olive oil, sesame oil, peanut oil 97 % of control

CCOc1ccc([N+](=O)[O-])cc1C1N(Cc2ccccc2OC)CCCN1Cc1ccccc1OC
inactive: [16] 98 % of control | [14] 98 % of control | [15] 104 % of control

CC(=O)Nc1ccc(C(=O)C(O)c2ccc(NC(C)=O)cc2)cc1 (stereo not drawn)
inactive: dose: 50.0 mg/kg/injection, schedule: Q01DX001 (ip), vehicle: other 100 % of control | dose: 100.0 mg/kg/injection, schedule: Q01DX001 (ip), vehicle: other 92 % of control | dose: 200.0 mg/kg/injection, schedule: Q01DX001 (ip), vehicle: other 105 % of control | dose: 400.0 mg/kg/injection, schedule: Q01DX001 (ip), vehicle: other 88 % of control

C/C(=N\N=C(/C)c1ccc(O)cc1)c1ccc(O)cc1
inactive: [5] 96 % of control | [11] 92 % of control | [6] 89 % of control

O=C(Nc1cccc2ccccc12)OCC(Cl)(Cl)Cl
inactive: dose: 100.0 mg/kg/injection, schedule: Q01DX009 (ip), vehicle: carboxymethylcellulose (CMC) 97 % of control and 98 % of control | dose: 100.0 mg/kg/injection, schedule: Q04DX002 (ip), vehicle: Klucel (hydroxypropylcellulose) (HPC) 108 % of control | dose: 100.0 mg/kg/injection, schedule: Q04DX002 (ip), vehicle: carboxymethylcellulose (CMC) 108 % of control and 90 % of control | dose: 100.0 mg/kg/injection, schedule: Q04DX003 (ip), vehicle: carboxymethylcellulose (CMC) 103 % of control | dose: 200.0 mg/kg/injection, schedule: Q01DX009 (ip), vehicle: carboxymethylcellulose (CMC) 95 % of control and 90 % of control | dose: 200.0 mg/kg/injection, schedule: Q04DX002 (ip), vehicle: Klucel (hydroxypropylcellulose) (HPC) 96 % of control | dose: 200.0 mg/kg/injection, schedule: Q04DX002 (ip), vehicle: carboxymethylcellulose (CMC) 95 % of control and 97 % of control | dose: 200.0 mg/kg/injection, schedule: Q04DX003 (ip), vehicle: carboxymethylcellulose (CMC) 97 % of control | dose: 400.0 mg/kg/injection, schedule: Q01DX009 (ip), vehicle: carboxymethylcellulose (CMC) 95 % of control and 97 % of control | dose: 400.0 mg/kg/injection, schedule: Q04DX002 (ip), vehicle: Klucel (hydroxypropylcellulose) (HPC) 108 % of control | dose: 400.0 mg/kg/injection, schedule: Q04DX002 (ip), vehicle: carboxymethylcellulose (CMC) 97 % of control and 87 % of control | dose: 400.0 mg/kg/injection, schedule: Q04DX003 (ip), vehicle: carboxymethylcellulose (CMC) 94 % of control

ClC1=CCCCC1
inactive: dose: 25.0 mg/kg/injection, schedule: Q01DX009 (ip), vehicle: acetone 95 % of control | dose: 50.0 mg/kg/injection, schedule: Q01DX009 (ip), vehicle: acetone 101 % of control | dose: 100.0 mg/kg/injection, schedule: Q01DX009 (ip), vehicle: acetone 100 % of control
